Laboratory results from PubChem BioAssay (NCI).
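Following 48 hours of exposure in 96-well plates, responses at five concentrations were used to interpolate endpoints linearly. Here, GI50 denotes the concentration required for 50% inhibition of growth. TGI denotes the concentration required for complete inhibition of growth.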

Experiments:
Test in all cases: DTP human tumour cell line panel, 48 h
NCI/ADR-RES ovarian = test system: NCI/ADR-RES ovarian
RPMI-8226 leukemia = test system: RPMI-8226 leukemia
MCF7 breast = test system: MCF7 breast
NCI-H23 lung = test system: NCI-H23 lung
UACC-62 melanoma = test system: UACC-62 melanoma
HCC-2998 colon = test system: HCC-2998 colon
SW-620 colon = test system: SW-620 colon
HS 578T breast = test system: HS 578T breast
OVCAR-3 ovarian = test system: OVCAR-3 ovarian
SK-MEL-2 melanoma = test system: SK-MEL-2 melanoma

Structure (SMILES) | GI50 (NCI/ADR-RES ovarian) [µM] | TGI (NCI/ADR-RES ovarian) [µM] | GI50 (RPMI-8226 leukemia) [µM] | TGI (RPMI-8226 leukemia) [µM] | GI50 (MCF7 breast) [µM] | TGI (MCF7 breast) [µM] | GI50 (NCI-H23 lung) [µM] | TGI (NCI-H23 lung) [µM] | GI50 (UACC-62 melanoma) [µM] | TGI (UACC-62 melanoma) [µM] | GI50 (HCC-2998 colon) [µM] | TGI (HCC-2998 colon) [µM] | GI50 (SW-620 colon) [µM] | TGI (SW-620 colon) [µM] | GI50 (HS 578T breast) [µM] | TGI (HS 578T breast) [µM] | GI50 (OVCAR-3 ovarian) [µM] | TGI (OVCAR-3 ovarian) [µM] | GI50 (SK-MEL-2 melanoma) [µM] | TGI (SK-MEL-2 melanoma) [µM]
CC/C=C\C[C@H](F)C/C=C1/C(=O)C=C[C@@H]1C/C=C\CCCC(=O)OC | 1.71 | 35 | 1.39 | 5.49 | 1.02 | 7.05 | 2.16 | 10.9 | 0.948 | 2.1 | 4.1 | 10.6 | 1.62 | 4.73 | 3.51 | 21 | 2.05 | 6.9 | 4.88 | 13
C=C1CC2(CC(c3ccccc3Cl)OC(c3ccccc3Cl)C2)OC1=O (stereo not given) |  | 8.55 |  | 3.84 |  | 5 |  | 9.03 |  | 4.68 |  | 7.74 |  | 5.21 |  | 4.71 |  | 5.96 |  | 6.78
Cc1c(-c2ccc(C3CCCCC3)cc2)nc2ccc(F)cc2c1C(=O)O | 0.609 | > 100 | 0.273 | > 100 | 0.168 | > 100 | 6.54 | > 100 | 0.205 | > 100 | 10.1 | > 100 | 0.228 | > 100 | 34.8 | > 100 | 0.475 | > 100 | > 45.9 | > 100
CN(C)CCCN(CCC1CCCCC1)CCC1CCCCC1 | 0.683 | 7 | 0.424 | 3.86 | 1.32 | 2.62 | 4.8 | 17.9 | 1.79 | 3.35 | 0.325 | 0.915 | 1.75 | 3.31 | 1.9 | 4.76 | 2.11 | 5.63 | 1.93 | 3.73
CO[C@H]1C=CO[C@@]2(C)Oc3c(C)c(O)c4c(O)c(c(CN5CCN(C)CC5)c(O)c4c3C2=O)NC(=O)/C(C)=C\C=C[C@H](C)[C@H](O)C(C)[C@@H](O)C(C)[C@H](OC(C)=O)[C@@H]1C (stereo not given in full) |  | > 100 |  | > 87.4 |  | 33.7 |  | > 77.6 |  | > 100 |  | > 100 |  | > 100 |  | > 100 |  | 14.4 |  | > 100
O=C(/C=C/c1ccc(Cl)cc1)c1ccccc(=O)c1O |  | 2.42 |  | 4.79 |  | 19.8 |  | 18.1 |  | 6 |  | 8.29 |  | > 40 |  | 31.1 |  | 19.8 |  | 11.8
Nc1c(C(=O)Nc2ccccc2)sc2nc3c(cc12)CCCCC3 | 0.507 | > 100 | 0.372 | 14.3 | 0.332 | > 100 | 0.874 | 97.3 | 0.41 | 19.4 | 1.01 | > 100 | 0.443 | > 100 | 0.669 | 31.3 | 0.415 | 2.07 | 1.72 | 20.4
